The values below come from paper PMC12373846, “Hemoglobin as a pseudoperoxidase and drug target for oxidative stress-related diseases” (Signal Transduction and Targeted Therapy, 2025).

A short description of assay [1]: DPPH radical scavenging assay. The conditions noted are these: Fig. S1e. The method, then: In a 96-well microplate, samples (20 μl) at concentrations ranging from 0.1 to 100 μM were mixed with 80 μL of 50 mM sodium phosphate buffer (pH 7.2) and 100 μL of DPPH (1,1-diphenyl-2-picrylhydrazyl) solution (250 μM in methanol) and incubated for 30-min in the dark. Each sample was quantified using a microplate fluorescence reader (SpectraMax iD5, Molecular Devices) at absorbance (517 nm). Edaravone was used as a positive control. The radical scavenging activity was estimated using the following equation: sample absorbance / control absorbance ×100. The dose-response curve, EC50 for the DPPH, was calculated and determined by fitting data with GraphPad Prism software. The fitting method had no special handling of outliers.
(In general: DPPH is a stable violet radical that fades when it is reduced.)

Assay [2] concerns primary cultured hippocampal astrocytes. The assay is described as follows: DCFDA intracellular ROS assay. The conditions noted are these: for ROS level (DCFDA): Fig. 3d. The format is cell-based, mouse. The protocol:
(§1) Primary hippocampal astrocytes were obtained from postnatal day 0‒2 (P0‒2) C57BL/6 mice as previously described.[73] The hippocampal tissue was dissected free of meninges, minced, and dissociated into a single-cell suspension by trituration. The cells were grown in Dulbecco’s modified Eagle’s medium supplemented with D-glucose (4500 mg/L), L-glutamine, sodium pyruvate (110 mg/L), 10% heat-inactivated horse serum, 10% heat-inactivated fetal bovine serum, and 1000 U/ml penicillin‒streptomycin. The cells were maintained at 37 °C in a humidified atmosphere containing 5% CO2.
The intracellular ROS levels of astrocytes were determined via 2′,7′- dichlorodihydrofluorescein diacetate (DCFDA; Thermo Fisher). Primary cultured hippocampal astrocytes were seeded into black 96-well plates (Ibidi) at a density of 5 × 10⁴ cells per well. The plates were incubated with oligomerized Aβ42 in the presence of KDS12008, KDS12017, KDS12025, HTPEB (10 µM each), and sodium pyruvate (1 mM). These cells were subsequently washed with Ca^2+ and Mg^2+-containing PBS, followed by the application of 30 µM DCFDA and incubation at 37 °C for 30 min in a dark incubator. The mean fluorescence intensity of each well was measured via iD5 microplate readers at 485 nm and 530 nm. The fluorescence values were calculated by subtracting the blank readings and normalizing them to those of the control group.

Assay [3] shares this test system. The assay is described as follows: oROS-G intracellular H2O2 imaging. The conditions noted are these: for oROS-G fluorescence (intracellular H2O2): Fig. 3f. The format is cell-based, mouse. The method, then: as §1
H2O2 specific, highly sensitive, and fast on-and-off kinetics, a genetically encoded oROS-G plasmid kindly provided by Dr. Andre Berndt. oROS-G was cloned under the GFAP104 promoter and delivered into primary cultured hippocampal astrocytes via the NeoN^TM transfection system (Invitrogen). The cells were treated with various concentrations of Aβ (1 to 10 μM) or 6-OHDA (Tocris, 2547; 10 to 50 μM) to induce aberrant H2O2. For subsequent experiments, 5 μM Aβ and 30 μM 6-OHDA were selected on the basis of initial dose‒response studies. KDS12025 (10 μM) and sodium pyruvate (1 mM) were applied as indicated in each experiment. For live-cell imaging, astrocytes were maintained in a humidified chamber at 37 °C with 5% […] during imaging to preserve physiological conditions. Changes in the fluorescence of oROS-G were recorded via an A1 Nikon confocal microscope equipped with a temperature- and humidity-controlled stage. Images were captured every 20 min for up to 40 h (20for the 6-OHDA experiments) via the NIS-Elements software (Nikon, Japan) for time-lapse imaging. The excitation and emission wavelengths for oROS-G fluorescence were set to 485 nm and 538 nm, respectively. Endpoint fluorescence measurements were also collected for KDS12025 dose-dependent experiments. To analyze the fluorescence intensity, individual regions of interest (ROIs) were manually selected for each astrocyte via NIS-Elements software (Nikon, Japan). The fluorescence intensity changes were normalized to the baseline values (ΔF/F0) to quantify the H2O2 dynamics. To determine the EC50 of KDS12025, endpoint fluorescence intensity data from oROS-G experiments were normalized to those of the Aβ+vehicle control group. The normalized data were analyzed via GraphPad Prism software to fit a four-parameter logistic curve, yielding the EC50 value for the H2O2-decomposing activity of KDS12025.

The target of the next assay is T1, HRP (Armoracia rusticana, UniProt P00433).
T1 sequence (P00433 31-353): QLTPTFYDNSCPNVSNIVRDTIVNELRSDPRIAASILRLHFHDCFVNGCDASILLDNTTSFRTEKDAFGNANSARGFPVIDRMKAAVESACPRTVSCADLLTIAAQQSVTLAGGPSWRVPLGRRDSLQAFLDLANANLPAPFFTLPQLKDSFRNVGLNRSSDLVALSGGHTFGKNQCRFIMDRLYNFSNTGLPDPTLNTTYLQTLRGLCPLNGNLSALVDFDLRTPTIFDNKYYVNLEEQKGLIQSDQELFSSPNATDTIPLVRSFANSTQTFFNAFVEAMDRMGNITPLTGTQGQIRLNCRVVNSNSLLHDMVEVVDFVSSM
The assay is described as follows: ROS-Glo H2O2 assay with HRP. It counts as biochemical, horseradish. The protocol: Hb (Sigma‒Aldrich, H7379), H2O2 (Sigma‒Aldrich, H1009), and Amplex Red reagents (Invitrogen, A12222) were obtained for the study. A 4 μM H2O2 solution was prepared in 50 mM sodium phosphate buffer (pH 7.2). Then, 49 μl of this mixture was mixed with 1 μl of the test compound in DMSO or distilled water. The mixture was combined with an assay mixture of Amplex Red reagent (20 mM stock to 0.1 mM) and HRP (200 U/ml stock to 0.2 U/ml) and added to the wells at 50 μl/well. After a 60-min incubation at 37 °C, resorufin production was quantified via a microplate fluorescence reader (SpectraMax iD5, Molecular Devices) at ex/em = 535/580 nm. […] For the ROS-Glo assay, the H2O2 substrate solution and ROS-Glo detection solution were prepared according to the manufacturer’s instructions. 10 μM H2O2 and drugs were prepared as in the Amplex Red assay, with HRP, Hb, CAT, or GPx added as needed. The mixture was added to the wells at 100 μl/well and incubated for 60 min at 37 °C. H2O2 substrate solution was added, and the mixture was incubated at room temperature for 30 min. After the H2O2 substrate solution was added and incubated at room temperature for 30 min, the ROS-Glo detection solution was added, and the mixture was incubated for 15 min. Luminescence was measured via iD5 microplate readers. […] The U/ml was calculated on the basis of the amount of H2O2 reduced by Hb during the reaction, using μg/ml and U/mg.
To evaluate the extent of peroxidase function facilitation by HTPEB (1 μM) and KDS12025 (1 μM) in HRP (0.2 U/ml) and Hb (10 μg/ml), we used the ROS-Glo assay over 30 and 60 min. The fold change was calculated by dividing the delta values during the 30-min reaction for the vehicle over drug conditions.

Usually IC50 stands for the concentration needed to halve the response being measured.

For the compound `CC1=NN(c2ccccc2)C(=O)C1` [Edaravone], the IC50 in assay [1] turned out to be 16.7 µM.
On to `CC(=O)C(=O)[O-].[Na+]` [Sodium pyruvate, sodium pyruvate, reference compound], for which, in assay [2] (Aβ 5μM + sodium pyruvate 1mM, Fig. 3e), the “Aβ-induced ROS level (DCFDA), normalized to control” value is recorded as 149.1±6.194. Also, the “oROS-G H2O2 level” value in assay [3] (6-OHDA 30 μM + sodium pyruvate, Fig. 3k) is 177.0±17.5. Besides, the “oROS-G H2O2 level, 40-h imaging” value in assay [3] (Aβ 5 μM + sodium pyruvate 1 mM, Fig. 3h) was found to be 137.5±9.751; in assay [3] (putrescine 180 μM + sodium pyruvate 1 mM, Fig. 3i), 189.0±23.55.
Regarding “Aβ: oligomerized Amyloid-beta (Aβ)42 aggregates [reference compound]”, the “ROS level (DCFDA)” value in assay [2] (Aβ 1μM) amounted to 101.9±6.217; in assay [2] (Aβ 5μM), 137.3±8.218; in assay [2] (Aβ 10μM), 155.2±9.442. The results for the “oROS-G fluorescence (intracellular H2O2)” value in assay [3] (Aβ 1μM), in assay [3] (Aβ 5μM) and in assay [3] (Aβ 10μM) were 109.4±4.271, 140.5±4.407 and 208.1±3.662, respectively.
As for “HRP: horseradish peroxidase, plant-derived heme-containing peroxidase”, the “EC50 of HRP for H2O2 decomposition without HTPEB” value with HRP (Fig. S1a) came out at 0.062 U/ml. In addition, in the assay with HRP (Fig. S1b), the “tau value, reaction time-response of HRP without HTPEB” value is 13.7 min.
